The test system of this data set is CCRIS mutagenicity, Ames/micronucleus/aberration tests. Description: CCRIS mutagenicity studies.
Setting [1] is: Test System: AMES SALMONELLA TYPHIMURIUM, Strain/Indicator: TA98, Metabolic Activation: NONE, Method: PREINCUBATION
[2] abbreviates: Test System: AMES SALMONELLA TYPHIMURIUM, Strain/Indicator: TA100, Metabolic Activation: NONE, Method: PREINCUBATION
Where [3] appears, read: Test System: AMES SALMONELLA TYPHIMURIUM, Strain/Indicator: TA1535, Metabolic Activation: NONE, Method: PREINCUBATION
The mark [4] stands for this setting: Test System: AMES SALMONELLA TYPHIMURIUM, Strain/Indicator: TA97, Metabolic Activation: NONE, Method: STANDARD PLATE.
Setting [5] is: Test System: AMES SALMONELLA TYPHIMURIUM, Strain/Indicator: TA97, Metabolic Activation: RAT, LIVER, S-9, AROCLOR 1254, Method: STANDARD PLATE.
[6] abbreviates: Test System: AMES SALMONELLA TYPHIMURIUM, Strain/Indicator: TA98, Metabolic Activation: NONE, Method: STANDARD PLATE.
The mark [7] stands for this setting: Test System: AMES SALMONELLA TYPHIMURIUM, Strain/Indicator: TA98, Metabolic Activation: RAT, LIVER, S-9, AROCLOR 1254, Method: STANDARD PLATE.
Where [8] appears, read: Test System: AMES SALMONELLA TYPHIMURIUM, Strain/Indicator: TA100, Metabolic Activation: NONE, Method: STANDARD PLATE.
Setting [9] is: Test System: AMES SALMONELLA TYPHIMURIUM, Strain/Indicator: TA100, Metabolic Activation: RAT, LIVER, S-9, AROCLOR 1254, Method: STANDARD PLATE.
Setting [10] is: Test System: AMES SALMONELLA TYPHIMURIUM, Strain/Indicator: TA104, Metabolic Activation: NONE, Method: STANDARD PLATE.
[11] abbreviates: Test System: AMES SALMONELLA TYPHIMURIUM, Strain/Indicator: TA1535, Metabolic Activation: NONE, Method: STANDARD PLATE.

SMILES strings stand for the structures. Active and inactive are the calls of the source. No rule for the calls is given here.

In the case of `Cc1c(C)c2c(c(C)c1OC(=O)CCC(=O)O)CC[C@@](C)(CCC[C@H](C)CCC[C@H](C)CCCC(C)C)O2`, the mutagenic call (Test System: AMES SALMONELLA TYPHIMURIUM, Strain/Indicator: TA97, Metabolic Activation: HAMSTER, LIVER, S-9, AROCLOR 1254 (10 OR 30%), Method: PREINCUBATION) was “inactive; negative”; the mutagenic call (Test System: AMES SALMONELLA TYPHIMURIUM, Strain/Indicator: TA97, Metabolic Activation: NONE, Method: PREINCUBATION) was “inactive; negative”; the mutagenic call (Test System: AMES SALMONELLA TYPHIMURIUM, Strain/Indicator: TA97, Metabolic Activation: RAT, LIVER, S-9, AROCLOR 1254 (10 OR 30%), Method: PREINCUBATION) is “inactive; negative”; the mutagenic call (Test System: AMES SALMONELLA TYPHIMURIUM, Strain/Indicator: TA98, Metabolic Activation: HAMSTER, LIVER, S-9, AROCLOR 1254 (10 OR 30%), Method: PREINCUBATION) was “inactive; negative”; the mutagenic call under setting [1] was “inactive; negative”; the mutagenic call (Test System: AMES SALMONELLA TYPHIMURIUM, Strain/Indicator: TA98, Metabolic Activation: RAT, LIVER, S-9, AROCLOR 1254 (10 OR 30%), Method: PREINCUBATION) was “inactive; negative”. Besides, the mutagenic call is, setting by setting: (Test System: AMES SALMONELLA TYPHIMURIUM, Strain/Indicator: TA100, Metabolic Activation: HAMSTER, LIVER, S-9, AROCLOR 1254 (10 OR 30%), Method: PREINCUBATION) “inactive; negative”; under setting [2], “inactive; negative”; (Test System: AMES SALMONELLA TYPHIMURIUM, Strain/Indicator: TA100, Metabolic Activation: RAT, LIVER, S-9, AROCLOR 1254 (10 OR 30%), Method: PREINCUBATION) “inactive; negative”; (Test System: AMES SALMONELLA TYPHIMURIUM, Strain/Indicator: TA1535, Metabolic Activation: HAMSTER, LIVER, S-9, AROCLOR 1254 (10 OR 30%), Method: PREINCUBATION) “inactive; negative”; under setting [3], “inactive; negative”; (Test System: AMES SALMONELLA TYPHIMURIUM, Strain/Indicator: TA1535, Metabolic Activation: RAT, LIVER, S-9, AROCLOR 1254 (10 OR 30%), Method: PREINCUBATION) “inactive; negative”.

Take `CC(=O)N(O)c1ccc(Cl)c(Cl)c1`: the mutagenic call is, setting by setting: under setting [4], “inactive; negative”; under setting [5], “inactive; negative”; under setting [6], “inactive; negative”; under setting [7], “inactive; negative”; under setting [8], “inactive; negative”; under setting [9], “inactive; negative”. The mutagenic call by setting is: under setting [10], “inactive; negative”; (Test System: AMES SALMONELLA TYPHIMURIUM, Strain/Indicator: TA104, Metabolic Activation: RAT, LIVER, S-9, AROCLOR 1254, Method: STANDARD PLATE) “inactive; negative”.

Turning to `Cc1ccncc1`, the mutagenic call runs as follows: under setting [4], “inactive; negative”; under setting [5], “inactive; negative”; under setting [6], “inactive; negative”; under setting [7], “inactive; negative”; under setting [8], “inactive; negative”; under setting [9], “inactive; negative”. In addition, the mutagenic call by setting is: (Test System: AMES SALMONELLA TYPHIMURIUM, Strain/Indicator: TA102, Metabolic Activation: NONE, Method: STANDARD PLATE) “inactive; negative”; (Test System: AMES SALMONELLA TYPHIMURIUM, Strain/Indicator: TA102, Metabolic Activation: RAT, LIVER, S-9, AROCLOR 1254, Method: STANDARD PLATE) “inactive; negative”.

Regarding `CN1CC[C@@]2(C)c3cc(O)ccc3N(C)[C@@H]12`, the mutagenic call by setting is: under setting [4], “inactive; negative”; (Test System: AMES SALMONELLA TYPHIMURIUM, Strain/Indicator: TA97, Metabolic Activation: S-9, Method: STANDARD PLATE) “inactive; negative”; under setting [6], “inactive; negative”; (Test System: AMES SALMONELLA TYPHIMURIUM, Strain/Indicator: TA98, Metabolic Activation: S-9, Method: STANDARD PLATE) “inactive; negative”; under setting [8], “inactive; negative”; (Test System: AMES SALMONELLA TYPHIMURIUM, Strain/Indicator: TA100, Metabolic Activation: S-9, Method: STANDARD PLATE) “inactive; negative”. The mutagenic call was “inactive; negative” under setting [10]; “inactive; negative” (Test System: AMES SALMONELLA TYPHIMURIUM, Strain/Indicator: TA104, Metabolic Activation: S-9, Method: STANDARD PLATE); “inactive; negative” under setting [11]; “inactive; negative” (Test System: AMES SALMONELLA TYPHIMURIUM, Strain/Indicator: TA1535, Metabolic Activation: S-9, Method: STANDARD PLATE); “inactive; negative” (Test System: AMES SALMONELLA TYPHIMURIUM, Strain/Indicator: TA1537, Metabolic Activation: NONE, Method: STANDARD PLATE); “inactive; negative” (Test System: AMES SALMONELLA TYPHIMURIUM, Strain/Indicator: TA1537, Metabolic Activation: S-9, Method: STANDARD PLATE). The mutagenic call (Test System: AMES SALMONELLA TYPHIMURIUM, Strain/Indicator: TA1538, Metabolic Activation: S-9, Method: STANDARD PLATE) is “inactive; negative”.

On to `CC(O)CNCC(C)O` (stereo unspecified), for which the mutagenic call (Test System: AMES SALMONELLA TYPHIMURIUM, Strain/Indicator: TA98, Metabolic Activation: HAMSTER, LIVER, S-9, AROCLOR 1254 (10%), Method: PREINCUBATION) was “inactive; negative”; the mutagenic call under setting [1] was “inactive; negative”; the mutagenic call (Test System: AMES SALMONELLA TYPHIMURIUM, Strain/Indicator: TA98, Metabolic Activation: RAT, LIVER, S-9, AROCLOR 1254 (10%), Method: PREINCUBATION) is “inactive; negative”; the mutagenic call (Test System: AMES SALMONELLA TYPHIMURIUM, Strain/Indicator: TA100, Metabolic Activation: HAMSTER, LIVER, S-9, AROCLOR 1254 (10%), Method: PREINCUBATION) was “inactive; negative”; the mutagenic call under setting [2] is “inactive; negative”; the mutagenic call (Test System: AMES SALMONELLA TYPHIMURIUM, Strain/Indicator: TA100, Metabolic Activation: RAT, LIVER, S-9, AROCLOR 1254 (10%), Method: PREINCUBATION) is “inactive; negative”. For the same compound, the mutagenic call reads like this: (Test System: AMES SALMONELLA TYPHIMURIUM, Strain/Indicator: TA1535, Metabolic Activation: HAMSTER, LIVER, S-9, AROCLOR 1254 (10%), Method: PREINCUBATION) “inactive; negative”; under setting [3], “inactive; negative”; (Test System: AMES SALMONELLA TYPHIMURIUM, Strain/Indicator: TA1535, Metabolic Activation: RAT, LIVER, S-9, AROCLOR 1254 (10%), Method: PREINCUBATION) “inactive; negative”; (Test System: AMES SALMONELLA TYPHIMURIUM, Strain/Indicator: TA1537, Metabolic Activation: HAMSTER, LIVER, S-9, AROCLOR 1254 (10%), Method: PREINCUBATION) “inactive; negative”; (Test System: AMES SALMONELLA TYPHIMURIUM, Strain/Indicator: TA1537, Metabolic Activation: NONE, Method: PREINCUBATION) “inactive; negative”; (Test System: AMES SALMONELLA TYPHIMURIUM, Strain/Indicator: TA1537, Metabolic Activation: RAT, LIVER, S-9, AROCLOR 1254 (10%), Method: PREINCUBATION) “inactive; negative”.

With `[2H]C([2H])([2H])N=NO`, the mutagenic call was “active; positive” under setting [11]; “active; positive” (Test System: E. COLI, Strain/Indicator: WP2, Metabolic Activation: NONE, Method: STANDARD PLATE); “active; positive” (Test System: E. COLI, Strain/Indicator: WP2 UVRA, Metabolic Activation: NONE, Method: STANDARD PLATE).

The record behind these values is PubChem BioAssay AID1259407 (Chemical Carcinogenesis Research Information System (CCRIS), 2018).
